PMC6627609, “Targeting Quorum Sensing: High-Throughput Screening to Identify Novel LsrK Inhibitors” (International Journal of Molecular Sciences, 2019)

Biological target: LsrK (Salmonella typhimurium, UniProt Q8ZKQ6)
Test: biochemical
Type: biochemical, S. typhimurium
Conditions: not given

Sequence of LsrK (Q8ZKQ6 whole entry): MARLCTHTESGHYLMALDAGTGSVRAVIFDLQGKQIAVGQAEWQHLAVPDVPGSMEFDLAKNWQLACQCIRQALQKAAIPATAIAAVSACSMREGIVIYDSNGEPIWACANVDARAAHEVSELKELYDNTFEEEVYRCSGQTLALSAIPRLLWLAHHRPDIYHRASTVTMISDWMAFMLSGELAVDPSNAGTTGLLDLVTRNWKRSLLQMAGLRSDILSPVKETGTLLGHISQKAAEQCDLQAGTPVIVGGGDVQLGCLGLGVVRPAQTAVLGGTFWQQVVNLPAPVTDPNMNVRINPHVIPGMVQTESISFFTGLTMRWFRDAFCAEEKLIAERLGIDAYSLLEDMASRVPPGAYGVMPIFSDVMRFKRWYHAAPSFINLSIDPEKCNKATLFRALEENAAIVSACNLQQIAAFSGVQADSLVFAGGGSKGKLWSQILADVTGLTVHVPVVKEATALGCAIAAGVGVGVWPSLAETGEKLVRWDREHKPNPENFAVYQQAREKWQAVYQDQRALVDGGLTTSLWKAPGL

Compound | inhibition at 50 µM
COc1ccc(C(=O)N2CCCC2=O)cc1 | 0%
COC(=O)[C@H](Cc1ccccc1)NC(=O)[C@@H](N)CC(=O)O | 0%
C=CC1=C(C(=O)O)N2C(=O)[C@@H](NC(=O)/C(=N\O)c3csc(N)n3)[C@H]2SC1 | 17%
CCN(CC)C(=S)SSC(=S)N(CC)CC | 154%
CCN(CC)C(=O)c1ccc(O)c(OC)c1 | 0%
CNc1ccccc1C(=O)O | 1%
CCOC(=O)[C@H](CCc1ccccc1)N[C@@H](C)C(=O)N1[C@H](C(=O)O)C[C@@H]2CCC[C@@H]21 | 3%
CC(=O)Nc1ccc(S(=O)(=O)Nc2ccc([N+](=O)[O-])cc2)cc1 | 1%
CC1=C(CC(=O)O)c2cc(F)ccc2/C1=C\c1ccc([S+](C)[O-])cc1 (stereo not shown) | 21%
CN1CC(=O)N2[C@H](c3ccc4c(c3)OCO4)c3[nH]c4ccccc4c3C[C@@H]2C1=O | 1%
COc1ccc2c(c1)OC[C@@H](Cc1ccc(OC)c(OC)c1)[C@H]2O | 2%
COc1ccc(/C=C/C(=O)Nc2ccccc2C(=O)O)cc1OC | 15%
Nc1nc(N)c2nc(-c3ccccc3)c(N)nc2n1 | 0%
CCOC(N)=O | 0%
CCCCC(=O)N(Cc1ccc(-c2ccccc2-c2nnn[nH]2)cc1)[C@H](C(=O)O)C(C)C | 1%
CC(C)CC(NC(=O)[C@H](C)N)C(=O)O (mixture of isomers) [ALANYL-dl-LEUCINE] | 2%
OC[C@H]1O[C@@H](O[C@@H]2[C@@H](CO)OC(O)(CO)[C@H]2O)[C@H](O)[C@@H](O)[C@H]1O (mixture of isomers) [LACTULOSE] | 2%
Nc1ccccc1S(N)(=O)=O [2-AMINOBENZENESULFONAMIDE] | 1%
COC1=CC(=O)C(C(=O)c2ccccc2)=CC1=O [2-BENZOYL-5-METHOXYBENZOQUINONE] | 38%

Compound | inhibition at 50 µM
Sc1nc2ccccc2s1 [2-MERCAPTOBENZOTHIAZOLE] | 1%
COC1(C)CCC2OC2(C)CCC2C1CC2(C)C (stereo not shown) [2-METHOXY-5 (6)EPOXY-TETRAHYDROCARYOPHYLLENE] | 0%
COc1c(O)cccc1O [2-METHOXYRESORCINOL] | 0%
CC(=O)c1cc2ccccc2oc1=O [3-ACETYLCOUMARIN] | 0%
C=C1C(N)CC2CC1C2(C)C (stereo not drawn) [3-AMINO-beta-PINENE] | 1%
CC(=O)O[C@H]1C[C@@H](O)C(C)(C)[C@@H]2C[C@@H](OC(C)=O)[C@]3(C)[C@H](CC[C@@]4(C)[C@@H](c5ccoc5)OC(=O)[C@H]5O[C@@]534)[C@@]12C [3-DEACETYLKHIVORIN] | 99%
CC(=O)O[C@H]1CC[C@]2(C)C(C[C@@H](OC(C)=O)[C@]3(C)C4=CC(=O)O[C@H](c5ccoc5)[C@@]4(C)CCC23)C1(C)C (stereo partly drawn) [3-DEOXO-3beta-ACETOXYDEOXYDIHYDROGEDUNIN] | 5%
COC(=O)C[C@H]1C(C)(C)[C@@H](O)[C@@H]2CC3=C4C=C(OC)O[C@@H](c5ccoc5)[C@]4(C)CCC3[C@@]1(C)C2=O (stereo partly drawn) [3-DEOXO-3beta-HYDROXYMEXICANOLIDE 16-ENOL ETHER] | 2%
C=C1[C@H]2CC[C@@]3(C)[C@H](c4ccoc4)OC(=O)C[C@]13O[C@H]1C[C@H](O)C(C)(C)[C@H](CC(=O)OC)[C@]12C [3-DEOXY-3beta-HYDROXY[…] METHYL ESTER] | 1%
COc1ccc2c(c1)OC[C@@H](Cc1ccc(OC)c(OC)c1)[C@@H]2O [3-DESHYDRO[…] ETHER] | 3%
COc1cccc(O)c1O [3-METHOXYCATECHOL] | 118%
Cc1cc(O)c(C)c(O)c1C(=O)O [3-METHYL[…]] | 1%
C[C@@H]1CC[C@@]23CCC4(C)[C@@](C=CC5[C@@]6(C)CCC(=O)C(C)(C)C6CC[C@]54C)(OC2=O)C3[C@H]1C (stereo partly shown) [3-OXOURSAN (28-13)OLIDE] | 1%
O=C(/C=C/c1ccccc1)c1ccc(O)cc1 [4'-HYDROXYCHALCONE] | 38%
COc1ccc(C(=O)/C=C/c2ccccc2)cc1 [4'-METHOXYCHALCONE] | 12%
C=CC(C1=CC(=O)C(OC)=CC1=O)c1ccccc1 (stereo not shown) [4-METHOXYDALBERGIONE] | 52%
Cc1cc(=O)oc2c(O)c(O)ccc12 [4-METHYLDAPHNETIN] | 1%
Cc1cc(=O)oc2cc(O)c(O)cc12 [4-METHYLESCULETIN] | 2%
CC(C)CCC[C@@H](C)[C@H]1CC[C@H]2[C@@H]3CC(=O)[C@H]4C[C@@H](O)CC[C@]4(C)[C@H]3CC[C@]12C [5alpha-CHOLESTAN-3beta-OL-6-ONE] | 1%

Same assay, conditions: 50 µM

Compound | Inhibition (%)
CC1(C)C2CC(=O)[C@]3(C)C(CC[C@@]4(C)[C@H](c5ccoc5)OC(=O)C5OC543)[C@@]2(C)[C@@H](O)C[C@H]1O (stereo partly shown) | 2
CCOc1cccc(C(=O)c2ccc(O)c(O)c2O)c1 | 11
COC(=O)NC(=S)Nc1ccccc1NC(=S)NC(=O)OC | 3
CC[C@H](C=C[C@@H](C)[C@H]1CC[C@H]2[C@@H]3CCC4=CC(=O)CC[C@]4(C)[C@H]3CC[C@]12C)C(C)C | 1
3-BROMO-4-METHYL-3.4-HEXAMETHYLENE-3.4-DIHYDRODIAZETE-1.2-DIOXIDE | 1
C=CC[S+]([O-])C[C@H](N)C(=O)O (mixture of isomers) [L(+/-)-ALLIIN] | 44
COc1cc(O)c(C(=O)/C=C/c2ccc(OC)c(O)c2)c(OC)c1 [2'.3-DIHYDROXY-4.4'.6'-TRIMETHOXYCHALCONE] | 2
COc1ccc(/C=C/C(=O)c2ccc(O)cc2O)cc1 [2'.4'-DIHYDROXY-4-METHOXYCHALCONE] | 2
O=C(/C=C/c1ccccc1)c1ccc(O[C@@H]2O[C@H](CO)[C@@H](O)[C@H](O)[C@H]2O)cc1O [2'.4'-DIHYDROXYCHALCONE 4'-GLUCOSIDE] | 2
O=C(/C=C/c1ccccc1)c1ccc(O)cc1O [2'.4'-DIHYDROXYCHALCONE] | 19
COc1cc(O)c(C(=O)/C=C/c2ccc(O)c(OC)c2)c(OC)c1 [2'.4-DIHYDROXY-3.4'.6'-TRIMETHOXYCHALCONE] | 1
O=C(/C=C/c1ccc(O)cc1)c1ccccc1O [2'.4-DIHYDROXYCHALCONE] | 58
COc1ccc(/C=C/C(=O)c2cc(O)ccc2O)cc1 [2'.5'-DIHYDROXY-4-METHOXYCHALCONE] | 102
COc1ccc(C(=O)O)c(O)c1OC [2-HYDROXY-3.4-DIMETHOXYBENZOIC ACID] | 1
O=C1C(Cl)=C(Cl)C(=O)c2c(O)ccc(O)c21 [2.3-DICHLORO-5.8-DIHYDROXYNAPTHOQUINONE] | 30
CCOc1ccc(C(=O)c2ccc(OC)c(O)c2O)cc1 [2.3-DIHYDROXY-4-METHOXY-4'-ETHOXYBENZOPHENONE] | 16
O=C(O)C(S)C(S)C(=O)O (stereo not shown) [2.3-DIMERCAPTOSUCCINIC ACID] | 88
CCOc1ccc(C(=O)c2ccc(O)c(O)c2O)cc1 [2.3.4-TRIHYDROXY-4'-ETHOXYBENZOPHENONE] | 79
O=[N+]([O-])c1ccc(O)c([N+](=O)[O-])c1 [2.4-DINITROPHENOL] | 4
COc1cc(O)c(C)c(O)c1 [2.6-DIHYDROXY-4-METHOXYTOLUENE] | 1

Compound | Inhibition (%)
COC1=CC(=O)C=C(OC)C1=O [2.6-DIMETHOXYQUINONE] | 50
Nc1nc[nH]n1 [3-AMINO-1.2.4-TRIAZOLE] | 1
COc1ccc(-c2oc3ccccc3c(=O)c2O)cc1OC [3-HYDROXY-3'.4'-DIMETHOXYFLAVONE] | 0
c1ccc2c(Cc3c[nH]c4ccccc34)c[nH]c2c1 [3.3'-DIINDOLYLMETHANE] | 0
O=c1c(O)c(-c2ccccc2)oc2cc(O)ccc12 [3.7-DIHYDROXYFLAVONE] | 0
CC1(C)CC2C1CCC1(C)OC2(C)CCC1O (stereo not shown) [3.7-EPOXYCARYOPHYLLAN-6-OL] | 2
CC12CCC3C(CC3(C)C)C(C)(CCC1=O)O2 (stereo not shown) [3.7-EPOXYCARYOPHYLLAN-6-ONE] | 1
COC(=O)C[C@H]1C(C)(C)[C@@H](O)[C@@H]2CC3=C4CC(O)O[C@@H](c5ccoc5)[C@]4(C)CCC3[C@@]1(C)C2=O (stereo partly drawn) [3.16-DIDEOXYMEXICANOLIDE-3beta-DIOL] | 0
CC(=O)O[C@H]1CC[C@]2(C)[C@H]3CC[C@@]4(C)[C@H](c5ccoc5)OC(=O)[C@H]5O[C@]54[C@]3(C)[C@H](OC(C)=O)C[C@H]2C1(C)C [3beta-ACETOXYDEOXODIHYDROGEDUNIN] | 2
C[C@@H]1CC[C@@]2(OC1)O[C@H]1C[C@H]3[C@@H]4CC[C@H]5C[C@@H](O)CC[C@]5(C)C4=CC[C@]3(C)[C@H]1[C@@H]2C [3beta-HYDROXYISOALLOSPIROST-9(11)-ENE] | 2
CCCCOc1cc(CC2CNC(=O)N2)ccc1OC (stereo not shown) [4-(3-BUTOXY-4-METHOXYBENZYL)IMIDAZOLIDIN-2-ONE] | 1
COc1cc(O)c(C(C)=O)c(O)c1 [4-O-METHYLPHLORACETOPHENONE] | 2
C=CC(C1=CC(=O)C(OC)=CC1=O)c1ccc(OC)cc1 (stereo not shown) [4.4'-DIMETHOXYDALBERGIONE] | 98
O=c1c(-c2ccccc2)coc2cc(O)cc(O)c12 [5.7-DIHYDROXYISOFLAVONE] | 106
COc1ccc2[nH]c3c(c2c1)CCN=C3C [6-METHOXYHARMALAN] | 2
COc1ccc2oc(-c3ccccc3OC)cc(=O)c2c1 [6.2'-DIMETHOXYFLAVONE] | 1
O=c1cc(-c2ccc(O)cc2)oc2ccc(O)cc12 [6.4'-DIHYDROXYFLAVONE] | 0
COc1ccc(-c2cc(=O)c3cc(OC)ccc3o2)cc1 [6.4'-DIMETHOXYFLAVONE] | 2
O=C(O)c1nc2cc(Cl)c(Cl)cc2nc1O [6.7-DICHLORO-3-HYDROXY-2-QUINOXALINECARBOXYLIC ACID] | 1
CC(=O)OCC1=C(C(=O)O)N2C(=O)[C@@H](N)[C@H]2SC1 [7-AMINOCEPHALOSPORANIC ACID] | 64

Same assay, conditions: read-out: IC50 against LsrK

Compound | IC50
COc1ccc(/C=C/C(=O)c2cc(O)ccc2O)cc1 [2'.5'-DIHYDROXY-4-METHOXYCHALCONE] | > 50 µM
